Assay results reported in US8431378B2, “Aminotransferase, gene encoding the same, and methods of using them” (Kaneka Corporation, priority 2005, dated 2013).
Entries after “also recorded” stand apart in the source; their conditions may differ.

Tests used:
[1] = system: purified enzyme MTA (aminotransferase); experiment: Specificity for amino donor, 7-methoxy-2-tetralone as amino acceptor (Example 3); type: biochemical, Pseudomonas fluorescens KNK08-18; settings: for Relative Activity (%): amino donor varied, 14 mM (racemic 28 mM), acceptor 14 mM 7-methoxy-2-tetralone, 30° C., 1 hour, activity with (S)-α-phenethylamine is 100
Description: In 20 μL of the purified Enzyme, 380 μL of a 0.1M potassium phosphate buffer containing 14 mM of 7-methoxy-2-tetralone and 14 mM (in case of the racemic amine compound, 28 mM)) of an amine compound of various type was added. After the mixture was reacted at 30° C. for 1 hour, 20 μL of 3N hydrochloric acid was added therein to stop the reaction. The reaction solution thus obtained was analyzed via high-performance liquid chromatography so as to quantitatively analyze 7-methoxy-2-aminotetralin thus obtained. Thereby, the amino group transfer activities with the various amino compounds were analyzed.
(§1) [Analysis Conditions of High-Performance Liquid Chromatography]
(§2) • Column: Cosmosil 5C8-MS (Nacalai Tesque Inc.) • Carrier: 30 mM potassium phosphate buffer (pH 2.5)/acetonitrile/methanol=4/1/1 (by volume) • Flow Rate: 0.9 mL/min • Detection: 254 nm

[2] = system: purified enzyme MTA (aminotransferase); experiment: Specificity for amino acceptor, (S)-α-phenethylamine as donor (Examples 5 and 6); type: biochemical, Pseudomonas fluorescens KNK08-18; settings: for Activity as amino acceptor (in words): donor (S)-α-phenethylamine
Description: The purified enzyme obtained in Example 1 was analyzed in terms of substrate specificity regarding amino acceptors. In 20 μL of the purified Enzyme, 380 μL of a 0.1M potassium phosphate buffer containing 14 mM of (S)-α-phenethylamine and 14 mM of a ketone compound of various type was added. After the mixture was reacted at 30° C. for 1 hour, 20 μL of 3N hydrochloric acid was added therein to stop the reaction. Results of the analysis are shown in Table 3, in which the relative activities are shown where the activity with pyruvic acid as the amino acceptor is 100.
as §1, §2
The purified enzyme obtained in Example 1 was analyzed in terms of substrate specificity regarding amino acceptors in the same manner as in Example 5.

MTA (present invention) = experiment: Substrate specificity, comparison with ω-amino acid transaminase (Example 7), Enzyme A; type: biochemical, Pseudomonas fluorescens KNK08-18; settings: for Reactivity as amino donor (in words): Enzyme A (MTA), receptor pyruvic acid or 2-ketoglutaric acid; for Relative activity, Enzyme A: donor 14 mM, activity with (S)-α-phenethylamine is 100
Description: The purified enzyme obtained in Example 1 was analyzed in terms of its reactivity to typical substrates of ω-amino acid transaminase. Firstly, 20 μL of a purified enzyme solution having a protein concentration of 0.2 mg/mL was added to 380 μL of a substrate solution having the following composition. After carrying out reaction at 30° C. for 1 hour therein, 20 μL of 3N hydrochloric acid was added therein to stop the reaction. Then, into 20 μL of the resultant reaction mixture, a 0.2M sodium carbonate aqueous solution of 80 μL and an acetone solution of 200 μL containing dabsyl chloride by 3.3 mg/mL were added. Then, the resultant mixture was reacted at 70° C. for 10 min. After 20 μL of acetic acid was added therein with stirring. The reaction mixture thus obtained was analyzed by high-performance liquid chromatography thereby to quantitatively analyze dabsylated alanine or […]. Results of the analysis are shown in Table 5, in which the relative activities are shown where the activity with (S)-α-phenethylamine as the amino donor is 100. In Table 5, the values of activities of ω-amino acid:pyruvic acid transaminase and 4-amino butyric acid: 2-ketoglutaric acid transaminase are from the literatures “Agric. Biol. Chem. 41, 1701-1706 (1977), Arch. Biochem. Biophys. 200, 156-164 (1980)”.
(§3) [Substrate Solution Composition]
Pyruvic acid or 2-ketoglutaric acid 14 mM
(§4) Pyridoxal phosphate 0.02 mM
(§5) Potassium Phosphate Buffer (pH 7.5) 0.1M
(§6) [High-Performance Liquid Chromatography Analysis Conditions]
(§7) Column: Deverosil ODS-HG-3 (Nomura Chemical Co., Ltd.)
(§8) Carrier: Acetonitrile/0.045M acetate buffer (pH 4.1)=35/65 (by volume)

[3] = system: purified enzyme MTA (aminotransferase); experiment: Specificity for amino donor, pyruvic acid as acceptor, dabsylated alanine quantified (Example 4); type: biochemical, Pseudomonas fluorescens KNK08-18; settings: for Amino group transfer activity as amino donor (in words): acceptor pyruvic acid; for Relative Activity (%): amino donor varied, 14 mM, acceptor 14 mM pyruvic acid, pH 7.5, 30° C., 1 hour, activity with (S)-α-phenethylamine is 100
Description: The amino group transfer activity measurement is carried out as follows: Firstly, 20 μL of a purified enzyme solution having a protein concentration of 0.2 mg/mL is added to 380 μL of a substrate solution having the following composition. After carrying out reaction at 30° C. for 1 hour therein, 20 μL of 3N hydrochloric acid is added therein to stop the reaction. Then, into 20 μL of the resultant reaction mixture, a 0.2M sodium carbonate aqueous solution of 80 μL and an acetone solution of 200 μL containing dabsyl chloride by 3.3 mg/mL are added. Then, the resultant mixture is reacted at 70° C. for 10 min. After 20 μL of acetic acid is added therein with stirring. The reaction mixture thus obtained is analyzed by high-performance liquid chromatography thereby to quantitatively analyze dabsylated alanine.
The purified enzyme obtained in Example 1 was analyzed in terms of its reactivity to typical substrates of ω-amino acid transaminase. Firstly, 20 μL of a purified enzyme solution having a protein concentration of 0.2 mg/mL was added to […] of a substrate solution having the following composition. After carrying out reaction at 30° C. for 1 hour therein, 20 μL of 3N hydrochloric acid was added therein to stop the reaction. Then, into 20 μL of the resultant reaction mixture, a 0.2M sodium carbonate aqueous solution of 80 μL and an acetone solution of 200 μL containing dabsyl chloride by 3.3 mg/mL were added. Then, the resultant mixture was reacted at 70° C. for 10 min. After 20 μL of acetic acid was added therein with stirring. The reaction mixture thus obtained was analyzed by high-performance liquid chromatography thereby to quantitatively analyze dabsylated alanine. Results of the analysis are shown in Table 2, which the amino group transfer activities are shown as relative activities where the activity with (S)-α-phenethylamine as the amino donor is 100.
as §3, §4, §5, §6, §7, §8

[4] = system: 4-Aminobutylic Acid: 2-Ketoglutaric Acid Transaminase; settings: amino group receptor 2-ketoglutaric acid; values from the literature; cited from earlier work
[5] = target: T1, ω-Amino Acid: Pyruvic Acid Transaminase (Pseudomonas putida, UniProt P28269); settings: amino group receptor pyruvic acid; values from the literature; cited from earlier work
T1 sequence (P28269 1-449): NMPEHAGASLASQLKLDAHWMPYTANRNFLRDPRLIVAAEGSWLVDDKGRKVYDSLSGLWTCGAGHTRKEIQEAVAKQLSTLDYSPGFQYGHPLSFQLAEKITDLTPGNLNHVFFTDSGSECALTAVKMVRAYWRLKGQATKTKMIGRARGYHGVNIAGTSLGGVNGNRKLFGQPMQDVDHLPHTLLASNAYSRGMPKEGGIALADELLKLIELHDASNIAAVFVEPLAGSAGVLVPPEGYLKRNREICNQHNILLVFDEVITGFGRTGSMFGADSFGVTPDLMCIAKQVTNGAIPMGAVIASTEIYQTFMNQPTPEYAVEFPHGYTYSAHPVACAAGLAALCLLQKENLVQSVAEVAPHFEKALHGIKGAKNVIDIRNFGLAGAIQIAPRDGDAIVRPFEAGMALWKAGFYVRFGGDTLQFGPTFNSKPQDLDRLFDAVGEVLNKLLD

[6] = Table 4: amino acceptor varied, same manner as in Example 5, donor (S)-α-phenethylamine
[7] = Table 3: amino acceptor varied, 14 mM, donor 14 mM (S)-α-phenethylamine, 30° C., 1 hour, activity with pyruvic acid is 100
[8] = amino group receptor pyruvic acid 14 mM
[9] = amino group receptor 2-ketoglutaric acid 14 mM

In the case of `NC1CCCCC1` [cyclohexylamine], the “Relative Activity (%)” value [1] is reported as 22%.
With `CCCCCC(C)=O` [2-Heptane] the “Relative Activity (%)” value [2, 6] was 7%.
With `CCCC=O` [Butylaldehyde] the “Relative Activity (%)” value [2, 7] was 18%.
With `NCCc1ccccc1` [β-phenethylamine] the “Relative Activity (%)” value [1] was 22%.
In the case of `COc1cccc(C(C)=O)c1` [3′-Methoxyacetophenone], the “Relative Activity (%)” value [2, 6] is reported as 10%.
In the case of `CC(=O)CCc1ccccc1` [Benzylacetone], the “Relative Activity (%)” value [2, 6] is reported as 33%.
For `CC(C)CN` [isobutylamine], the “Relative Activity (%)” value [1] was 8%.
For `CCCCN` [n-butylamine], the “Relative Activity (%)” value [1] was 7%.
With `CC(=O)c1cccc(O)c1` [3′-Hydroxyacetophenone] the “Relative Activity (%)” value [2, 6] was 3%.
In the case of `CCCCCC(C)N` (racemic) [±2-heptylamine], the “Relative Activity (%)” value [1] is reported as 93%.
With `C[C@H](N)c1ccccc1` [(S)-α-phenethylamine, reference compound] the “Reactivity as amino donor (in words)” value (MTA (present invention)) was “highly active”, the “Relative activity, Enzyme A” value (MTA (present invention); [8]) was 100 and the “Amino group transfer activity as amino donor (in words)” value (from here on “Amino group transfer activity”) [3] was “active”. The “Relative Activity (%)” value [3] was 100%, the “Amino group transfer activity” value ([1]; acceptor 7-methoxy-2-tetralone) was “especially high activity” and the “Relative Activity (%)” value [1] was 100%.
For `NCc1ccccc1` [benzylamine], the “Relative Activity (%)” value [1] was 35%.
With `O=C(O)CCC(=O)C(=O)O` [2-Ketoglutaric Acid] the “Relative Activity (%)” value [2, 7] was 0% and the “Activity as amino acceptor (in words)” value [2] was “no activity”.
For `C[C@H](N)C(=O)O` [L-alanine], the “Relative Activity (%)” value [1] was 20%.
For `NCCCCC(N)C(=O)O` (racemic) [DL-lysine], the “Amino group transfer activity” value [3] was “no activity; also recorded: substantially inactive”, the “Relative Activity (%)” value [3] was 0% and the “Relative Activity (%)” value [1] was 0%.
With `O=C1CCN(Cc2ccccc2)C1` [1-Benzyl-3-Pyrrolidinone] the “Relative Activity (%)” value [2, 6] was 20%.
In the case of `NCCCC(=O)O` [4-Aminobutyric Acid], the “Reactivity as amino donor (in words)” value (MTA (present invention)) is listed as “not reactive”, the “Relative activity, Enzyme A” value (MTA (present invention); [9]) is listed as 0 and the “Relative activity, Enzyme C” value [4] is listed as 100.
In the case of `CCC=O` [Propionaldehyde], the “Relative Activity (%)” value [2, 7] is reported as 5%.
In the case of `CC(N)CCc1ccccc1` (racemic) [±3-amino-1-phenylbutane], the “Relative Activity (%)” value [1] is reported as 90%.
With `CCC(=O)C(=O)O` [2-Ketobutyric Acid] the “Relative Activity (%)” value [2, 7] was 2%.
For `CCN` [n-ethylamine], the “Relative Activity (%)” value [1] was 6%.
In the case of `CCCC(=O)C(=O)O` [2-Keto-n-Valeric Acid], the “Relative Activity (%)” value [2, 7] is reported as 0.1%.
For `COc1ccc(CC(C)N)cc1OC` (racemic) [±3′,4′-dimethoxyamphetamine], the “Relative Activity (%)” value [1] was 88%.
With `CCCCCN` [n-amylamine] the “Relative Activity (%)” value [1] was 11%.
With `NCCC(=O)O` [β-alanine] the “Reactivity as amino donor (in words)” value (MTA (present invention)) was “not reactive”, the “Relative activity, Enzyme A” value (MTA (present invention); [9]) was 0 and the “Relative activity, Enzyme A” value (MTA (present invention); [8]) was 0. The “Relative activity, Enzyme C” value [4] was 0, the “Relative activity, Enzyme B” value [5] was 100 and the “Amino group transfer activity” value [3] was “substantially inactive”. For the same compound, the “Amino group transfer activity” value ([3]; listed as Valanine) was “no activity”, the “Relative Activity (%)” value [3] was 0% and the “Relative Activity (%)” value [1] was 0%.
In the case of `COCC(C)=O` [Methoxypropanone], the “Relative Activity (%)” value [2, 6] is reported as 13%.
With `CCCC(C)N` (racemic) [±2-pentylamine] the “Relative Activity (%)” value [1] was 60%.
For `NCCCCN` [Putrescine], the “Reactivity as amino donor (in words)” value (MTA (present invention)) is listed as “not reactive”, the “Relative activity, Enzyme A” value (MTA (present invention); [8]) is listed as 0 and the “Relative activity, Enzyme B” value [5] is listed as 18. For the same compound, the “Amino group transfer activity” value [3] was “no activity; also recorded: substantially inactive” and the “Relative Activity (%)” value [3] was 0%.
With `O=CC(=O)O` [Glyoxylic Acid] the “Relative Activity (%)” value [2, 7] was 99% and the “Activity as amino acceptor (in words)” value [2] was “high activity; also recorded: active”.
For `CC(=O)c1cccc(C(F)(F)F)c1` [3′-Trifluoromethylacetophenone], the “Relative Activity (%)” value [2, 6] was 40%.
With `O=C1CCc2ccccc2C1` [2-Tetralone] the “Relative Activity (%)” value [2, 6] was 17%.
With `CCC(C)N` (racemic) [±2-butylamine] the “Relative Activity (%)” value [1] was 48%.
For `CCCN` [n-propylamine], the “Relative Activity (%)” value [1] was 6%.
For `CC(C)N` [isopropylamine], the “Relative Activity (%)” value [1] was 10%.
With `O=Cc1ccccc1` [Benzaldehyde] the “Relative Activity (%)” value [2, 7] was 2%.
In the case of `CC(=O)c1ccc(Cl)cc1` [4′-Chloroacetophenone], the “Relative Activity (%)” value [2, 6] is reported as 30%.
With `COc1ccc2c(c1)CC(=O)CC2` [7-Methoxy-2-Tetralone] the “Relative Activity (%)” value [2, 6] was 10%.
For `CC(=O)c1cccnc1` [3-Acetylpyridine], the “Relative Activity (%)” value [2, 6] was 10%.
With `CCCCC(N)CC` (racemic) [±3-heptylamine] the “Relative Activity (%)” value [1] was 19%.
For `CC(=O)C(=O)O` [Pyruvic Acid, reference compound], the “Relative Activity (%)” value [2, 7] was 100% and the “Activity as amino acceptor (in words)” value [2] was “high activity; also recorded: active”.
For `NCCS(=O)(=O)O` [Taurine], the “Reactivity as amino donor (in words)” value (MTA (present invention)) was “not reactive”, the “Relative activity, Enzyme A” value (MTA (present invention); [9]) was 0 and the “Relative activity, Enzyme A” value (MTA (present invention); [8]) was 0. The “Relative activity, Enzyme C” value [4] was 8, the “Relative activity, Enzyme B” value [5] was 132 and the “Amino group transfer activity” value [3] was “no activity; also recorded: substantially inactive”. For the same compound, the “Relative Activity (%)” value [3] was 0%.
With `CC(=O)c1cnccn1` [Acetylpyrazine] the “Relative Activity (%)” value [2, 6] was 100%.
